Target: T1, human MGAT2 (Homo sapiens, UniProt Q3SYC2)
T1 construct: made in house; host or cells: Pichia pastoris (vector pPICZA), membrane fraction
Assay: MGAT2 inhibitory activity test
Format: biochemical
Settings: MGAT2-expressed yeast membrane fraction, [14C]-oleoyl-CoA, 37° C. for 30 minutes
Description: Human MGAT2 genes were amplified by PCR using primers described below from human cDNA library (Clontech).
The amplified human MGAT2 genes were introduced into a yeast expression vector pPICZA (Invitrogen). The resultant expression plasmid was introduced into an yeast (Pichia pastris) by electroporation to produce a recombinant yeast. The recombinant yeast was cultured in the presence of 0.5% methanol for 72 hours, and the cells were crushed using glass beads in 10 mM Tris pH 7.5, 250 mM sucrose and 1 mM EDTA, followed by adjusting the membrane fraction by centrifugation to use the adjusted membrane fraction as an enzyme source.
To the reaction solution, 100 μl of 2-propanol/heptan (80:20) was added, the mixture was stirred well, followed by addition of 200 μl of heptane and further stirring the mixture. After centrifugation, the heptane layer was collected, 80 μl of ethanol/0.1N NaOH/H2O (50:5:45) was added, the mixture was thus stirred, followed by recentrifuging the mixture and collecting the heptane layer. After exsiccation of the resultant heptane layer, 100 μl of Microscint 0 (PerkinElmer) was added, and the radioactivity was measured with a liquid scintillation counter. The inhibitory activity was calculated from the following formula:
Inhibition rate=100−(radioactivity in case of addition of test compound−background)/(radioactivity in case of addition of no test compound−background)×100
wherein the background means the radioactivity in case of addition of no membrane fraction.

T1 sequence (Q3SYC2 whole entry): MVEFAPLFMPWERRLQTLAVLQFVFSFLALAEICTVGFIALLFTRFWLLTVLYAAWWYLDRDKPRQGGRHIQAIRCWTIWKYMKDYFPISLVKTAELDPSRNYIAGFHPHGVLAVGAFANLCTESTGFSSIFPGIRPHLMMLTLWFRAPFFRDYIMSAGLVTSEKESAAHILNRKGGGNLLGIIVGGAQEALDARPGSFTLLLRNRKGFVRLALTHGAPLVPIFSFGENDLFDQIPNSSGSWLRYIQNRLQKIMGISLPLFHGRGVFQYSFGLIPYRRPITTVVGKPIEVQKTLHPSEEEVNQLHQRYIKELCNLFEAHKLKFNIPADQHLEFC

IC50 | Structure (SMILES)
817 nM | O=c1c2c(nc(SCc3ccccc3)n1-c1ccccc1)CCN(c1nc3cc(F)c(F)cc3[nH]1)C2 [Example 1, 6-(5,6-difluoro-1H-benzimidazol-2-yl)-3-phenyl-2-[(phenylmethyl)thio]-5,6,7,8-tetrahydropyrido[4,3-d]pyrimidin-4(3H)-one]
184 nM | O=c1c2c(nc(SCc3ccccc3)n1-c1ccccc1)CCN(c1nc3cc(C(F)(F)F)ccc3[nH]1)C2 [Example 2, 6-(5-trifluoromethyl-1H-benzimidazol-2-yl)-3-phenyl-2-[(phenylmethyl)thio]-5,6,7,8-tetrahydropyrido[4,3-d]pyrimidin-4(3H)-one]
114 nM | O=c1c2c(nc(SCc3ccnnc3)n1-c1ccccc1)CCN(c1nc3cc(C(F)(F)F)ccc3[nH]1)C2 [Example 4, 3-phenyl-2-[(pyridazin-4-ylmethyl)thio]-6-[5-(trifluoromethyl)-1H-benzimidazol-2-yl]-5,6,7,8-tetrahydropyrido[4,3-d]pyrimidin-4(3H)-one]

Structure (SMILES) | IC50
O=c1c2c(nc(SCc3cccnc3)n1-c1ccccc1)CCN(c1nc3cc(C(F)(F)F)ccc3[nH]1)C2 [Example 3, 3-phenyl-2-[(pyridin-3-ylmethyl)thio]-6-[5-(trifluoromethyl)-1H-benzimidazol-2-yl]-5,6,7,8-tetrahydropyrido[4,3-d]pyrimidin-4(3H)-one] | 56 nM
